Structures are written as SMILES. Bridge positions count the residues as written; N and C are the ends. Square brackets hold non-standard residues; d marks the D form. Peptide text beside a SMILES is read from it. * marks the point of attachment. Tyr(3,5-F2) = N[C@@H](Cc1cc(F)c(O)c(F)c1)C(=O)O; Ala(morpholin-4-yl) = N[C@@H](CN1CCOCC1)C(=O)O; Bip = N[C@@H](Cc1ccc(-c2ccccc2)cc1)C(=O)O; Tyr(3-F) = N[C@@H](Cc1ccc(O)c(F)c1)C(=O)O; Phe(4-NH2) = Nc1ccc(C[C@H](N)C(=O)O)cc1; Phe(3-Me) = Cc1cccc(C[C@H](N)C(=O)O)c1; His(τ-Me) = Cn1cnc(C[C@H](N)C(=O)O)c1; His(π-Me) = Cn1cncc1C[C@H](N)C(=O)O; mTyr = N[C@@H](Cc1cccc(O)c1)C(=O)O; Cha = N[C@@H](CC1CCCCC1)C(=O)O; Cit = NC(=O)NCCC[C@H](N)C(=O)O; dCba = N[C@H](CC1CCC1)C(=O)O; Carboxymethyl = O=C(O)C*; Orn = NCCC[C@H](N)C(=O)O; Aun = NCCCCCCCCCCC(=O)O; Dab = NCC[C@H](N)C(=O)O; Dap = NC[C@H](N)C(=O)O; AEEA = NCCOCCOCC(=O)O

T1 sequence (Q15116 25-288): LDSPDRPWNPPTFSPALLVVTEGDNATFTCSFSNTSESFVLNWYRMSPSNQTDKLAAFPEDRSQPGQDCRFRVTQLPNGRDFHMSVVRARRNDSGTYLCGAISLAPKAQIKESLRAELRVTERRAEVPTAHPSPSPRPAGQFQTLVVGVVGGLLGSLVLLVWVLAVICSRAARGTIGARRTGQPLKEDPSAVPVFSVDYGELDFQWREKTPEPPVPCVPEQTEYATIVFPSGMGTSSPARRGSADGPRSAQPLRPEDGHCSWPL

The experiment addresses T1, PD-1/PD-L1 interaction (PE-labeled human PD-L1-Ig binding to Jurkat cell line over-expressing human PD-1) (Homo sapiens, UniProt Q15116).
T1 construct: expressed in transfected cells; host or cells: Jurkat
Put plainly: Jurkat-PD-1 Cell Binding High-Content Screening Assay (CBA). It is filed as cell-based. To be noted: Jurkat cell line over-expressing human PD-1; PE-labeled PD-L1-Ig 20 nM final; read-out: Jurkat hPD1-PDL1 IC50. The essentials: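 First, compound is added to PD-1-expressing Jurkat cells in serum-containing DMEM and left 2 h at 37° C. Next, PE-conjugated PD-L1-Ig is introduced at 20 nM final concentration for 1 hour. Finally, cells are fixed in 4% paraformaldehyde with Hoechst 33342, washed and imaged.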
As to `Cc1cccc(C[C@@H]2NC(=O)[C@H](CC(=O)O)NC(=O)[C@H](Cc3ccc(OCC(=O)O)cc3)NC(=O)[C@H](CN)NC(=O)CSC[C@@H](C(=O)N[C@@H](CCN)C(=O)NCCCCCCCCCCC(=O)O)NC(=O)[C@H](CCCCN)NC(=O)[C@H](C(C)C)NC(=O)[C@H](CC3CCCCC3)NC(=O)[C@H](CCN)NC(=O)[C@@H](CC3CCC3)NC(=O)[C@H](CCCN)NC(=O)[C@H](C(C)C)NC(=O)[C@H](Cc3ccc(-c4ccccc4)cc3)NC(=O)[C@H](C(C)C)NC2=O)c1` [Compound 2027] ({CH2CO}-[Dap]Y(Carboxymethyl)D[Phe(3-Me)]V[Bip]V[Orn][dCba][Dab][Cha]VKC[Dab][Aun]-OH; thioether N-14), the IC50 was 15 nM.

Regarding `CC(C)C[C@H]1NC(=O)[C@H](CCCN)NC(=O)[C@H](C(C)C)NC(=O)[C@H](Cc2ccc(-c3ccccc3)cc2)NC(=O)[C@H](C(C)C)NC(=O)[C@H](Cc2ccc(N)cc2)NC(=O)[C@H](CC(=O)O)NC(=O)[C@H](Cc2ccc(OCC(=O)O)cc2)NC(=O)[C@H](CN)NC(=O)CSC[C@@H](C(=O)N[C@@H](CCN)C(=O)NCCCCCCCCCCC(=O)O)NC(=O)[C@H](CCCCN)NC(=O)[C@H](C(C)C)NC(=O)[C@H](CC2CCCCC2)NC(=O)[C@H](CCN)NC1=O` [Compound 2028] ({CH2CO}-[Dap]Y(Carboxymethyl)D[Phe(4-NH2)]V[Bip]V[Orn][dL][Dab][Cha]VKC[Dab][Aun]-OH; thioether N-14), the half-inhibitory concentration (IC50) came to 13.7 nM.

As to `CC(C)C[C@H]1NC(=O)[C@H](CCCN)NC(=O)[C@H](C(C)C)NC(=O)[C@H](Cc2ccc(-c3ccccc3)cc2)NC(=O)[C@H](C(C)C)NC(=O)[C@H](Cc2cccc(O)c2)NC(=O)[C@H](CC(=O)O)NC(=O)[C@H](Cc2ccc(OCC(=O)O)cc2)NC(=O)[C@H](CN)NC(=O)CSC[C@@H](C(=O)N[C@@H](CCN)C(=O)NCCCCCCCCCCC(=O)O)NC(=O)[C@H](CCCCN)NC(=O)[C@H](C(C)C)NC(=O)[C@H](CC2CCCCC2)NC(=O)[C@H](CCN)NC1=O` [Compound 2029] ({CH2CO}-[Dap]Y(Carboxymethyl)D[mTyr]V[Bip]V[Orn][dL][Dab][Cha]VKC[Dab][Aun]-OH; thioether N-14), the half-maximal inhibitory concentration (IC50) came to 8 nM.

For the molecule `CC(C)C[C@H]1NC(=O)[C@H](CCCN)NC(=O)[C@H](C(C)C)NC(=O)[C@H](Cc2ccc(-c3ccccc3)cc2)NC(=O)[C@H](C(C)C)NC(=O)[C@H](Cc2ccc(O)c(F)c2)NC(=O)[C@H](CC(=O)O)NC(=O)[C@H](Cc2ccc(OCC(=O)O)cc2)NC(=O)[C@H](CN)NC(=O)CSC[C@@H](C(=O)N[C@@H](CCN)C(=O)NCCCCCCCCCCC(=O)O)NC(=O)[C@H](CCCCN)NC(=O)[C@H](C(C)C)NC(=O)[C@H](CC2CCCCC2)NC(=O)[C@H](CCN)NC1=O` [Compound 2030] ({CH2CO}-[Dap]Y(Carboxymethyl)D[Tyr(3-F)]V[Bip]V[Orn][dL][Dab][Cha]VKC[Dab][Aun]-OH; thioether N-14), the IC50 was 7.2 nM.

Turning to `CC(C)C[C@H]1NC(=O)[C@H](CCCN)NC(=O)[C@H](C(C)C)NC(=O)[C@H](Cc2ccc(-c3ccccc3)cc2)NC(=O)[C@H](C(C)C)NC(=O)[C@H](Cc2cc(F)c(O)c(F)c2)NC(=O)[C@H](CC(=O)O)NC(=O)[C@H](Cc2ccc(OCC(=O)O)cc2)NC(=O)[C@H](CN)NC(=O)CSC[C@@H](C(=O)N[C@@H](CCN)C(=O)NCCCCCCCCCCC(=O)O)NC(=O)[C@H](CCCCN)NC(=O)[C@H](C(C)C)NC(=O)[C@H](CC2CCCCC2)NC(=O)[C@H](CCN)NC1=O` [Compound 2032] ({CH2CO}-[Dap]Y(Carboxymethyl)D[Tyr(3,5-F2)]V[Bip]V[Orn][dL][Dab][Cha]VKC[Dab][Aun]-OH; thioether N-14), the IC50 amounted to 147 nM.

For the molecule `CC(C)C[C@H]1NC(=O)[C@H](CCCN)NC(=O)[C@H](C(C)C)NC(=O)[C@H](Cc2ccc(-c3ccccc3)cc2)NC(=O)[C@H](C(C)C)NC(=O)[C@H](Cc2ccc(O)cc2)NC(=O)[C@H](CC(=O)O)NC(=O)[C@H](Cc2ccc(OCC(=O)O)cc2)NC(=O)[C@H](CN)NC(=O)CSC[C@@H](C(=O)N[C@@H](CCN)C(=O)NCCCCCCCCCCC(=O)O)NC(=O)[C@H](CCCCN)NC(=O)[C@H](C(C)C)NC(=O)[C@H](CC2CCCCC2)NC(=O)[C@H](CCN)NC1=O` [Compound 2033] ({CH2CO}-[Dap]Y(Carboxymethyl)DYV[Bip]V[Orn][dL][Dab][Cha]VKC[Dab][Aun]-OH; thioether N-14), the IC50 turned out to be 29.2 nM.

As for `Cc1cccc(C[C@@H]2NC(=O)[C@H](CC(=O)O)NC(=O)[C@H](Cc3ccc(OCC(=O)O)cc3)NC(=O)[C@H](Cc3cncn3C)NC(=O)CSC[C@@H](C(=O)N[C@@H](CCN)C(=O)NCCCCCCCCCCC(=O)O)NC(=O)[C@H]([C@@H](C)O)NC(=O)[C@H](C(C)C)NC(=O)[C@H](CC3CCCCC3)NC(=O)[C@H](CCN)NC(=O)[C@@H](CC(C)C)NC(=O)[C@H](CCCN)NC(=O)[C@H](CCCNC(N)=O)NC(=O)[C@H](Cc3ccc(-c4ccccc4)cc3)NC(=O)[C@H](C(C)C)NC2=O)c1` [Compound 2034] ({CH2CO}-[His(π-Me)]Y(Carboxymethyl)D[Phe(3-Me)]V[Bip][Cit][Orn][dL][Dab][Cha]VTC[Dab][Aun]-OH; thioether N-14), the IC50 is 15.5 nM.

As to `Cc1cccc(C[C@@H]2NC(=O)[C@H](CC(=O)O)NC(=O)[C@H](Cc3ccc(OCC(=O)O)cc3)NC(=O)[C@H](Cc3cncn3C)NC(=O)CSC[C@@H](C(=O)N[C@@H](CCN)C(=O)NCCCCCCCCCCC(=O)O)NC(=O)[C@H](CCCCN)NC(=O)[C@H](C(C)C)NC(=O)[C@H](CC3CCCCC3)NC(=O)[C@H](CCN)NC(=O)[C@@H](CC(C)C)NC(=O)[C@H](CCCN)NC(=O)[C@H](C(C)C)NC(=O)[C@H](Cc3ccc(-c4ccccc4)cc3)NC(=O)[C@H](C(C)C)NC2=O)c1` [Compound 2035] ({CH2CO}-[His(π-Me)]Y(Carboxymethyl)D[Phe(3-Me)]V[Bip]V[Orn][dL][Dab][Cha]VKC[Dab][Aun]-OH; thioether N-14), the IC50 was 14.5 nM.

For `Cc1cccc(C[C@@H]2NC(=O)[C@H](CC(=O)O)NC(=O)[C@H](Cc3ccc(OCC(=O)O)cc3)NC(=O)[C@H](Cc3cn(C)cn3)NC(=O)CSC[C@@H](C(=O)N[C@@H](CCN)C(=O)NCCCCCCCCCCC(=O)O)NC(=O)[C@H]([C@@H](C)O)NC(=O)[C@H](C(C)C)NC(=O)[C@H](CC3CCCCC3)NC(=O)[C@H](CCN)NC(=O)[C@@H](CC(C)C)NC(=O)[C@H](CCCN)NC(=O)[C@H](CCCNC(N)=O)NC(=O)[C@H](Cc3ccc(-c4ccccc4)cc3)NC(=O)[C@H](C(C)C)NC2=O)c1` [Compound 2036] ({CH2CO}-[His(τ-Me)]Y(Carboxymethyl)D[Phe(3-Me)]V[Bip][Cit][Orn][dL][Dab][Cha]VTC[Dab][Aun]-OH; thioether N-14), the concentration for half-maximal inhibition (IC50) came out at 14.4 nM.

Take `Cc1cccc(C[C@@H]2NC(=O)[C@H](CC(=O)O)NC(=O)[C@H](Cc3ccc(OCC(=O)O)cc3)NC(=O)[C@H](Cc3cn(C)cn3)NC(=O)CSC[C@@H](C(=O)N[C@@H](CCN)C(=O)NCCCCCCCCCCC(=O)O)NC(=O)[C@H](CCCCN)NC(=O)[C@H](C(C)C)NC(=O)[C@H](CC3CCCCC3)NC(=O)[C@H](CCN)NC(=O)[C@@H](CC(C)C)NC(=O)[C@H](CCCN)NC(=O)[C@H](C(C)C)NC(=O)[C@H](Cc3ccc(-c4ccccc4)cc3)NC(=O)[C@H](C(C)C)NC2=O)c1` [Compound 2037] ({CH2CO}-[His(τ-Me)]Y(Carboxymethyl)D[Phe(3-Me)]V[Bip]V[Orn][dL][Dab][Cha]VKC[Dab][Aun]-OH; thioether N-14): the concentration for half-maximal inhibition (IC50) was 16.9 nM.

As for `Cc1cccc(C[C@@H]2NC(=O)[C@H](CC(=O)O)NC(=O)[C@H](Cc3ccc(OCC(=O)O)cc3)NC(=O)[C@H](CN3CCOCC3)NC(=O)CSC[C@@H](C(=O)N[C@@H](CCN)C(=O)NCCCCCCCCCCC(=O)O)NC(=O)[C@H]([C@@H](C)O)NC(=O)[C@H](C(C)C)NC(=O)[C@H](CC3CCCCC3)NC(=O)[C@H](CCN)NC(=O)[C@@H](CC(C)C)NC(=O)[C@H](CCCN)NC(=O)[C@H](CCCNC(N)=O)NC(=O)[C@H](Cc3ccc(-c4ccccc4)cc3)NC(=O)[C@H](C(C)C)NC2=O)c1` [Compound 2038] ({CH2CO}-[Ala(morpholin-4-yl)]Y(Carboxymethyl)D[Phe(3-Me)]V[Bip][Cit][Orn][dL][Dab][Cha]VTC[Dab][Aun]-OH; thioether N-14), the IC50 was found to be 38.7 nM.

`Cc1cccc(C[C@@H]2NC(=O)[C@H](CC(=O)O)NC(=O)[C@H](Cc3ccc(OCC(=O)O)cc3)NC(=O)[C@H](CN3CCOCC3)NC(=O)CSC[C@@H](C(=O)N[C@@H](CCN)C(=O)NCCCCCCCCCCC(=O)O)NC(=O)[C@H](CCCCN)NC(=O)[C@H](C(C)C)NC(=O)[C@H](CC3CCCCC3)NC(=O)[C@H](CCN)NC(=O)[C@@H](CC(C)C)NC(=O)[C@H](CCCN)NC(=O)[C@H](C(C)C)NC(=O)[C@H](Cc3ccc(-c4ccccc4)cc3)NC(=O)[C@H](C(C)C)NC2=O)c1` [Compound 2039] ({CH2CO}-[Ala(morpholin-4-yl)]Y(Carboxymethyl)D[Phe(3-Me)]V[Bip]V[Orn][dL][Dab][Cha]VKC[Dab][Aun]-OH; thioether N-14): the IC50 was determined as 19.4 nM.

Turning to `Cc1cccc(C[C@@H]2NC(=O)[C@H](CC(=O)O)NC(=O)[C@H](Cc3ccc(OCC(=O)O)cc3)NC(=O)[C@H](CN)NC(=O)CSC[C@@H](C(=O)N[C@@H](CCN)C(=O)NCCOCCOCC(=O)NCCCCCCCCCCC(=O)O)NC(=O)[C@H](CCCN)NC(=O)[C@H](C(C)C)NC(=O)[C@H](CC3CCCCC3)NC(=O)[C@H](CCN)NC(=O)[C@@H](CC(C)C)NC(=O)[C@H](CCCN)NC(=O)[C@H](Cc3ccccc3)NC(=O)[C@H](Cc3ccc(-c4ccccc4)cc3)NC(=O)[C@H](Cc3ccc(O)cc3)NC2=O)c1` [Compound 2041] ({CH2CO}-[Dap]Y(Carboxymethyl)D[Phe(3-Me)]Y[Bip]F[Orn][dL][Dab][Cha]V[Orn]C[Dab][AEEA][Aun]-OH; thioether N-14), the IC50 was determined as 8.2 nM.

The record behind these values is patent US20260022142A1, “MACROCYCLIC IMMUNOMODULATORS” (Bristol-Myers Squibb Company, priority 2022, published 2026).
